From paper PMC8508980, “Design, Synthesis and Anticancer Profile of New 4-(1H-benzo[d]imidazol-1-yl)pyrimidin-2-amine-Linked Sulfonamide Derivatives with V600EBRAF Inhibitory Effect” (International Journal of Molecular Sciences, 2021) come the findings set out here.

In assay [1] the target is T1, BRAF (wild-type) (Homo sapiens, UniProt P15056).
T1 construct: purchased Reaction Biology Corp. (Kinase HotSpot service)
Put plainly: Reaction Biology kinase HotSpot enzyme assay. In kind it is biochemical. The following applies: 1 µM ATP; mean ± S.D. of two separate experiments. As for the experimental part: The enzymatic assays were performed in Reaction Biology Corp. using the standard protocol at 1 µM ATP and threefold dilution factor (detailed procedure is found in the Supplementary Information page 52 s).
(§1) Reaction Biology Corp. Kinase HotSpotTM service http://www.reactionbiology.com was used for screening of compounds IC50 Proﬁler Express for IC50 measurement. Assay protocol: In a ﬁnal reaction volume of 25 μL, kinase (5–10 mU) is incubated with 25 mM Tris pH 7.5, 0.02 mM EGTA, 0.66 mg/mL myelin basic protein, 10 mM magnesium acetate and [γ33P-ATP] (speciﬁc activity approx. 500 cpm/pmol, concentration as required). The reaction is initiated by the addition of the Mg-ATP mix. After incubation for 40 min at room temperature, the reaction is stopped by the addition of 5 μL of a 3% phosphoric acid solution. 10 μL of the reaction is then spotted onto a P30 ﬁltermat, and washed three times for 5 min in 75 mM phosphoric acid and once in methanol prior to drying and scintillation counting.

The test system of assay [2] is A375 cells. In words: Antiproliferative MTT assay. The class given is cell-based. The following applies: Homo sapiens, A-375, 48 h, mean ± S.D. of two experiments. As for the experimental part:
(§2) The effect of final target compounds over A375 and SK-MEL-5 was performed using reported procedures (detailed procedure is located in the Supplementary Information page 51s). […]
(§3) Evaluation of the Antiproliferative Activity Against A375 and SK-MEL-5
(§4) A375 and SK-MEL-5 cells were purchased from American Type Culture Collection (ATCC, Ro ckv ille, MD, USA) and maintained in Dulbecco’s modified eagle medium (DMEM, Welgene, Daegu, Republic of Korea) supplemented with 10% fetal bovine serum (FBS, Welgene, Daegu, Republic of Korea) and 1% penicillin/streptomycin (Welgene, Daegu, Republic of Korea) in a hu midified atmo sphere with 5% CO2 at 37 °C. Both cells were taken from culture substrate with 0.05% trypsin-0.02% EDTA and plated at a density of 5 × 10^3 cells/well in 96 well plates and then incubated at 37 °C fo r 24 h in a hu midified atmo sphere with 5% CO2 prior to treatment with various concentrations (3-fold serial dilution, 12 points) of the tested compounds. The cells were incubated for 48 h after treatment with the test compounds. The cell viability was assessed by the conventional 3-(4,5-dimethylthiazol-2-yl)-2,5-diphenyltetrazolium bromide (MTT) reduction assay. MTT assays were carried out with CellTiter 96® (Promega) according to the manufacturer’s instructions. The absorbance at 590 nm was recorded using EnVision 2103 (Perkin Elmer; Bo ston , MA, USA). The IC50 values were calculated using GraphPad Prism 4.0
A general note: Formazan colour is commonly taken as a measure of viable cells.

For assay [3], the system named is SK-MEL-5 cells. Put plainly: Antiproliferative MTT assay. In kind it is cell-based. The following applies: Homo sapiens, 48 h, mean ± S.D. of two experiments. As for the experimental part: as §2, §3, §4
Assay [4] addresses T2, V600EBRAF (Homo sapiens, UniProt P15056, V600E).
T2 construct: purchased Reaction Biology Corp. (Kinase HotSpot service)
Put plainly: Reaction Biology kinase HotSpot enzyme assay. The class given is biochemical. The following applies: 1 µM ATP; for IC50: mean ± S.D. of two separate experiments; for % Inhibition at 1 µM over V600EBRAF / inhibition at 1 µM: single dose 1 µM, mean ± S.D. of two experiments; for inhibition at 1 µM: read-out: % Inhibition at 1 µM over V600EBRAF. The method, then: Reaction Biology Corp. Kinase HotSpotTM service
as §1, with “Proﬁler” for “Reaction Biology Corp. Kinase HotSpotTM service http://www.reactionbiology.com was used for screening of compounds IC50 Proﬁler”

One may read the IC50 as the concentration that gives 50% inhibition. High values mean lower potency, low ones higher potency. As usually defined, the % Inhibition is the change of the read-out against control, counted positive when it falls. By inhibition is commonly meant the relative decrease from the control value, in per cent.

T1 sequence (P15056 whole entry): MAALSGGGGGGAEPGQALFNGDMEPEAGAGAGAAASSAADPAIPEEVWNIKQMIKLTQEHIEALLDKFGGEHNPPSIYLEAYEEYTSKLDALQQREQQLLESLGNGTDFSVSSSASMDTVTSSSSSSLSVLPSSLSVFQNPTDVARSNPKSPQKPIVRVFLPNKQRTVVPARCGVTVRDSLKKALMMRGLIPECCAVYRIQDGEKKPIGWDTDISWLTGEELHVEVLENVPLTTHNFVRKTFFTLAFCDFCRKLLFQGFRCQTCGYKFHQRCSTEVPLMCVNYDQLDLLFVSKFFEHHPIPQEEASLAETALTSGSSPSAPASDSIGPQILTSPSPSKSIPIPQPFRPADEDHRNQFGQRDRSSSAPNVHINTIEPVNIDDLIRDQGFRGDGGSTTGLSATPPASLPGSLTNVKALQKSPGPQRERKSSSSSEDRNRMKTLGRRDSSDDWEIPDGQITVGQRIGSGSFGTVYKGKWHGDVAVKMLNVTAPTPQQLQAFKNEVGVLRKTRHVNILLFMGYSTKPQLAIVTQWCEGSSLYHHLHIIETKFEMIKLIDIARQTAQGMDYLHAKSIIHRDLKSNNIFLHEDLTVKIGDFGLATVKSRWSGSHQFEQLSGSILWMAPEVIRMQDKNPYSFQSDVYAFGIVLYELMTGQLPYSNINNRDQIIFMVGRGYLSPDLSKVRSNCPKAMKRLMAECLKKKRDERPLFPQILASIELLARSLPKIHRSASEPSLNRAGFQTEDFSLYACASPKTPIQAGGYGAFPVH
T2 sequence (P15056 whole entry V600E): as the sequence (P15056 whole entry) above, with V600E counted along it

Consider `O=S(=O)(NCCCNc1nccc(-n2cnc3ccccc32)n1)c1ccc(Cl)cc1` [12j, N-(3-((4-(1H-benzo [d]imidazol-1-yl)pyrimidin-2-yl)amino)propyl)-4-chloro benzenesulfonamide], for which the IC50 in assay [1] is 1.13 ± 0.099 µM; in assay [2], 10.4 ± 0.24 µM; in assay [3] it was 12.9 ± 0.72 µM; in assay [4] it was 0.79 ± 0.051 µM. For the same molecule, the “% Inhibition at 1 µM over V600EBRAF” value in assay [4] amounted to 88.14 ± 0.19%. The inhibition at 1 µM in assay [4] came to 88%.

`O=S(=O)(NCCCNc1nccc(-n2cnc3ccccc32)n1)c1ccc(C(F)(F)F)cc1` [12l, N-(3-((4-(1H-benzo [d]imidazol-1-yl)pyrimidin-2-yl)amino)propyl)-4-(trifluoromethyl) benzenesulfonamide]: the half-inhibitory concentration (IC50) was found to be 0.94 ± 0.065 µM in assay [1], 1.85 ± 0.11 µM in assay [2], 2.02 ± 0.09 µM in assay [3] and 0.49 ± 0.061 µM in assay [4]. Besides, the “% Inhibition at 1 µM over V600EBRAF” value in assay [4] turned out to be 98.75 ± 0.58%. Moreover, the inhibition at 1 µM in assay [4] is 99%.

On to `O=S(=O)(NCCCNc1nccc(-n2cnc3ccccc32)n1)c1ccc(Br)cc1` [12k, N-(3-((4-(1H-benzo [d]imidazol-1-yl)pyrimidin-2-yl)amino)propyl)-4-bromo benzenesulfonamide], for which the IC50 came to 1.53 ± 0.11 µM in assay [1], 12 ± 0.47 µM in assay [2], 13.5 ± 0.39 µM in assay [3] and 0.81 ± 0.056 µM in assay [4]. The “% Inhibition at 1 µM over V600EBRAF” value in assay [4] is given as 73.81 ± 0.75%. For the same molecule, the inhibition at 1 µM in assay [4] is 74%.

Consider `O=S(=O)(NCCNc1nccc(-n2cnc3ccccc32)n1)c1ccc(C(F)(F)F)cc1` [12e, N-(2-((4-(1H-benzo [d]imidazol-1-yl)pyrimidin-2-yl)amino)ethyl)-4-(trifluoromethyl)benzenesulfonamide], for which the half-maximal inhibitory concentration (IC50) in assay [1] came to 1.25 ± 0.095 µM; in assay [2] it was 2.89 ± 0.14 µM; in assay [3], 6.54 ± 0.18 µM; in assay [4], 0.62 ± 0.031 µM. Besides, in assay [4], the “% Inhibition at 1 µM over V600EBRAF” value is 98.24 ± 0.44%. Besides, the inhibition at 1 µM in assay [4] came to 98%.

Take `O=S(=O)(NCCNc1nccc(-n2cnc3ccccc32)n1)c1ccc(Cl)cc1` [12c, N-(2-((4-(1H-benzo [d]imidazol-1-yl)pyrimidin-2-yl)amino)ethyl)-4-chlorobenzenesulfonamide]: the IC50 was 1.38 ± 0.17 µM in assay [1], 11 ± 0.36 µM in assay [2], 17.6 ± 0.49 µM in assay [3] and 0.82 ± 0.024 µM in assay [4]. Besides, in assay [4], the “% Inhibition at 1 µM over V600EBRAF” value is 70.55 ± 0.71%. In addition, in assay [4], the inhibition at 1 µM was 71%.

With `O=S(=O)(NCCCNc1nccc(-n2cnc3ccccc32)n1)c1ccc(F)cc1` [12i, N-(3-((4-(1H-benzo [d]imidazol-1-yl)pyrimidin-2-yl)amino)propyl)-4-fluorobenzenesulfonamide], the IC50 came out at 1.33 ± 0.081 µM in assay [1], 1.95 ± 0.13 µM in assay [2], 2.36 ± 0.21 µM in assay [3] and 0.53 ± 0.022 µM in assay [4]. The “% Inhibition at 1 µM over V600EBRAF” value in assay [4] came to 97.81 ± 0.82%. Besides, the inhibition at 1 µM in assay [4] came out at 98%.

Consider `O=S(=O)(NCCNc1nccc(-n2cnc3ccccc32)n1)c1ccc(Br)cc1` [12d, N-(2-((4-(1H-benzo [d]imidazol-1-yl)pyrimidin-2-yl)amino)ethyl)-4-bromobenzenesulfonamide], for which the IC50 in assay [1] is 1.79 ± 0.15 µM; in assay [2] it was 11.8 ± 0.71 µM; in assay [3], 19.7 ± 0.51 µM; in assay [4], 0.91 ± 0.019 µM. Besides, the “% Inhibition at 1 µM over V600EBRAF” value in assay [4] came out at 69.28 ± 0.51%. Moreover, the inhibition at 1 µM in assay [4] was determined as 69%.

Turning to `O=S(=O)(NCCNc1nccc(-n2cnc3ccccc32)n1)c1ccc(F)cc1` [12b, N-(2-((4-(1H-benzo [d]imidazol-1-yl)pyrimidin-2-yl)amino)ethyl)-4-fluorobenzenesulfonamide], the IC50 in assay [1] amounted to 1.51 ± 0.22 µM; in assay [2], 10.5 ± 0.22 µM; in assay [3], 15.6 ± 0.37 µM; in assay [4] it was 0.74 ± 0.051 µM. Also, in assay [4], the “% Inhibition at 1 µM over V600EBRAF” value amounted to 75.17 ± 0.27%. In assay [4], the inhibition at 1 µM worked out at 75%.

For `Cc1ccc(S(=O)(=O)NCCNc2nccc(-n3cnc4ccccc43)n2)cc1` [12g, N-(2-((4-(1H-benzo [d]imidazol-1-yl)pyrimidin-2-yl)amino)ethyl)-4-methyl benzenesulfonamide], the IC50 turned out to be 1.53 ± 0.26 µM in assay [1], 7.22 ± 0.23 µM in assay [2], 8.25 ± 0.12 µM in assay [3] and 0.79 ± 0.042 µM in assay [4]. Further, the “% Inhibition at 1 µM over V600EBRAF” value in assay [4] was 82.11 ± 0.32%. Also, the inhibition at 1 µM in assay [4] amounted to 82%.

With `COc1ccc(S(=O)(=O)NCCNc2nccc(-n3cnc4ccccc43)n2)cc1` [12f, N-(2-((4-(1H-benzo [d]imidazol-1-yl)pyrimidin-2-yl)amino)ethyl)-4-methoxy benzenesulfonamide], the IC50 was 1.98 ± 0.12 µM in assay [1], 12.6 ± 0.44 µM in assay [2], 18.7 ± 0.69 µM in assay [3] and 0.98 ± 0.02 µM in assay [4]. Moreover, the “% Inhibition at 1 µM over V600EBRAF” value in assay [4] stood at 55.21 ± 0.52%. Further, the inhibition at 1 µM in assay [4] is 55%.

For the molecule `O=S(=O)(NCCCNc1nccc(-n2cnc3ccccc32)n1)c1ccccc1` [12h, N-(3-((4-(1H-benzo [d]imidazol-1-yl)pyrimidin-2-yl)amino)propyl)benzenesulfonamide], the IC50 in assay [1] is 2.32 ± 0.11 µM; in assay [2], 9.26 ± 0.16 µM; in assay [3], 11.3 ± 0.29 µM; in assay [4], 1.12 ± 0.098 µM. Further, the “% Inhibition at 1 µM over V600EBRAF” value in assay [4] is given as 49.54 ± 0.61%. The inhibition at 1 µM in assay [4] was 50%.

Take `O=S(=O)(NCCNc1nccc(-n2cnc3ccccc32)n1)c1ccccc1` [12a, N-(2-((4-(1H-benzo [d]imidazol-1-yl)pyrimidin-2-yl)amino)ethyl)benzenesulfonamide]: the IC50 in assay [1] was found to be 3.25 ± 0.45 µM; in assay [2] it was 12.8 ± 0.41 µM; in assay [3] it was 20.4 ± 0.86 µM; in assay [4], 1.91 ± 0.14 µM. Further, the “% Inhibition at 1 µM over V600EBRAF” value in assay [4] amounted to 30.35 ± 0.41%. Besides, the inhibition at 1 µM in assay [4] amounted to 30%.

Consider `COc1ccc(S(=O)(=O)NCCCNc2nccc(-n3cnc4ccccc43)n2)cc1` [12m, N-(3-((4-(1H-benzo [d]imidazol-1-yl)pyrimidin-2-yl)amino)propyl)-4-methoxy benzenesulfonamide], for which the IC50 in assay [1] turned out to be 1.46 ± 0.086 µM; in assay [2] it was 13.1 ± 0.27 µM; in assay [3], 14.6 ± 0.71 µM; in assay [4], 0.82 ± 0.048 µM. Besides, in assay [4], the “% Inhibition at 1 µM over V600EBRAF” value was 51.26 ± 0.29%. Besides, the inhibition at 1 µM in assay [4] amounted to 51%.

With `O=S(=O)(NCCCNc1nccc(-n2cnc3ccccc32)n1)c1cccc2ccccc12` [12n, N-(3-((4-(1H-benzo [d]imidazol-1-yl)pyrimidin-2-yl)amino)propyl)naphthalene-1-sulfonamide], the IC50 was 3.54 ± 0.175 µM in assay [1], 16.9 ± 0.81 µM in assay [2], 17.9 ± 0.62 µM in assay [3] and 1.28 ± 0.144 µM in assay [4]. In addition, the “% Inhibition at 1 µM over V600EBRAF” value in assay [4] was 41.27 ± 0.46%. The inhibition at 1 µM in assay [4] was determined as 41%.
